In US5622962A, “5α-reductase inhibitors” (priority 1995, dated 1997) one finds inhibition data, which are given here for 20 molecules.

The target of assay [1] is T1, Type II 5α-Reductase from Human Prostate (Homo sapiens, UniProt P31213).
T1 construct: The same procedure as above was used for preparations using tissue from prostate surgery; from tissue; host or cells: human prostate tissue from surgery, homogenate, 100,000×g pellet
T1 sequence (P31213 1-254): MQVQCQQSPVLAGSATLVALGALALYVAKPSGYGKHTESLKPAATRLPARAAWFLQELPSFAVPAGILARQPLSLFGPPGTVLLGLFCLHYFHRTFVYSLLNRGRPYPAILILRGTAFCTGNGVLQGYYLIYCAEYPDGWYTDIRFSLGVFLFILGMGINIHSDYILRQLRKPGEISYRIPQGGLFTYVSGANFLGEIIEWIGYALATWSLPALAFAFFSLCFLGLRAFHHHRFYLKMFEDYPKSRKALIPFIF
Briefly: Human Type II 5α-reductase assay (conversion of [3H]-testosterone to 5α-reduced metabolites). Format: biochemical.

The target of assay [2] is T2, Type I 5α-Reductase from Human Scalp (Homo sapiens, UniProt P18405).
T2 construct: Scalp punch biopsies from graft recipient sites were obtained from human hair transplant procedures; from tissue; host or cells: human scalp punch biopsies (hair transplant graft recipient sites), homogenate, 100,000×g pellet
T2 sequence (P18405 1-259): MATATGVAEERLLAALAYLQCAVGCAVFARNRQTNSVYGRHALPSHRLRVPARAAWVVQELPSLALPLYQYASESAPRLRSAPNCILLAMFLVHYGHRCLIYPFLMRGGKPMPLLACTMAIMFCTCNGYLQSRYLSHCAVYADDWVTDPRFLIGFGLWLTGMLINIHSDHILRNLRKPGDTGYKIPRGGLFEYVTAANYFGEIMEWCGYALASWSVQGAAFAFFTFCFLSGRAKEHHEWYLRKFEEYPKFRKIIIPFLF
The assay is described as follows: Human Type I 5α-reductase assay (conversion of [3H]-testosterone to 5α-reduced metabolites). Format: biochemical.

The mark [3] stands for this setting: pH 5.5, 0.3 μM, sodium acetate pH 5.5, 25°, 30 min, compared to control reaction mixtures, read-out: percent inhibition of Type II AR.
Setting [4] is: pH 7.5, 0.3 μM, 50 nM [3H]-testosterone, pH 7.5, 25°, 180 min, compared to control reaction mixtures, read-out: percent inhibition of Type I AR.

Structures are written as SMILES. Where two headings read alike, the source gives them in different places.

For the molecule `CN1C(=O)C=C[C@]2(C)c3ccc(-c4cccc([N+](=O)[O-])c4)cc3CC[C@@H]12` [Example 118, (+)-(4aR)-(10bR)-4-methyl-8-(3-nitrophenyl)-10b-methyl-3,4,4a,5,6,10b-hexahydrobenzo[f]quinolin-3-one], the inhibition (in general, the share of the control response that was lost under treatment) at 0.3 µM in assay [1] (setting [3]) came out at 43%; in assay [2] (setting [4]) it was 25%.

As for `CSc1ccc(-c2ccc3c(c2)CC[C@H]2N(C)C(=O)CC[C@]32C)cc1` [Example 120, (+)-(4aR)-(10bR)-4-methyl-8-(4-methylthiophenyl)-10b-methyl-1,2,3,4,4a,5,6,10b-octahydrobenzo[f]quinolin-3-one], the inhibition at 0.3 µM in assay [1] (setting [3]) stood at 37%; in assay [2] (setting [4]), 93%.

For the molecule `CNS(=O)(=O)c1ccc(-c2ccc3c(c2)CC[C@H]2N(C)C(=O)CC[C@]32C)cc1` [Example 123], the inhibition at 0.3 µM in assay [1] (setting [3]) was 27%; in assay [2] (setting [4]) it was 10%.

Regarding `CN1C(=O)CC[C@]2(C)c3ccc(-c4ccccc4[N+](=O)[O-])cc3CC[C@@H]12` [Example 124, (+)-(4aR)-(10bR)-4-methyl-8-(2-nitrophenyl)-10b-methyl-1,2,3,4,4a,5,6,10b-octahydrobenzo[f]quinolin-3-one], the results for the inhibition at 0.3 µM in assay [1] (setting [3]) and in assay [2] (setting [4]) were 32% and 23%, respectively.

In the case of `CN1C(=O)CC[C@]2(C)c3ccc(-c4ccccc4C#N)cc3CC[C@@H]12` [Example 125, (+)-(4aR)-(10bR)-4-methyl-8-(2-cyanophenyl)-10b-methyl-1,2,3,4,4a,5,6,10b-octahydrobenzo[f]quinolin-3-one], the values for the inhibition at 0.3 µM in assay [1] (setting [3]) and in assay [2] (setting [4]) were 36% and 64%, respectively.

With `CN1C(=O)CC[C@]2(C)c3ccc(-c4ccc(COc5ccccc5)s4)cc3CC[C@@H]12` [Example 126, (+)-(4aR)-(10bR)-4-methyl-8-(2-[5-(phenoxymethyl)thienyl])-10b-methyl-1,2,3,4,4a,5,6,10b-octahydrobenzo[f]quinolin-3-one], the figures for the inhibition at 0.3 µM in assay [1] (setting [3]) and in assay [2] (setting [4]) were 43% and 85%, respectively.

As to `CN1C(=O)CC[C@]2(C)c3ccc(-c4cc(F)c(F)cc4F)cc3CC[C@@H]12` [Example 128, (+)-(4aR)-(10bR)-4-methyl-8-(2,4,5-trifluorophenyl)-10b-methyl-1,2,3,4,4a,5,6,10b-octahydrobenzo[f]quinolin-3-one], the inhibition at 0.3 µM in assay [1] (setting [3]) was 40%; in assay [2] (setting [4]), 82%.

Consider `CN1C(=O)CC[C@]2(C)c3ccc(-c4ccc(COc5ccc(F)cc5)s4)cc3CC[C@@H]12` [Example 129, (+)-(4aR)-(10bR)-4-methyl-8-(2-[5-(4-fluorophenoxy-methyl)thienyl])-10b-methyl-1,2,3,4,4a,5,6,10b-octahydrobenzo[f]-quinolin-3-one], for which the inhibition at 0.3 µM in assay [1] (setting [3]) was 36%; in assay [2] (setting [4]), 91%.

Take `CN1C(=O)CC[C@]2(C)c3ccc(-c4cc(F)cc(F)c4F)cc3CC[C@@H]12` [Example 130, (+)-(4aR)-(10bR)-4-methyl-8-(2,3,5-trifluorophenyl)-10b-methyl-1,2,3,4,4a,5,6,10b-octahydrobenzo[f]quinolin-3-one]: the inhibition at 0.3 µM in assay [1] (setting [3]) came out at 29%; in assay [2] (setting [4]) it was 83%.

Turning to `CN1C(=O)CC[C@]2(C)c3ccc(-c4ccc5c(c4)Cc4ccccc4-5)cc3CC[C@@H]12` [Example 131, (+)-(4aR)-(10bR)-4-methyl-8-(2-fluorenyl)-10b-methyl-1,2,3,4,4a,5,6,10b-octahydrobenzo[f]quinolin-3-one], the inhibition at 0.3 µM in assay [1] (setting [3]) was 44%; in assay [2] (setting [4]) it was 57%.

On to `CN1C(=O)CC[C@]2(C)c3ccc(-c4cc(Cl)sc4Cl)cc3CC[C@@H]12` [Example 132, (+)-(4aR)-(10bR)-4-methyl-8-(3-[2,5-dichlororo]thienyl)-10b-methyl-1,2,3,4,4a,5,6,10b-octahydrobenzo[f]quinolin-3-one], for which the inhibition at 0.3 µM in assay [1] (setting [3]) amounted to 24%; in assay [2] (setting [4]) it was 87%.

As for `CN1C(=O)CC[C@]2(C)c3ccc(-c4ccc([N+](=O)[O-])cc4C(F)(F)F)cc3CC[C@@H]12` [Example 133, (+)-(4aR)-(10bR)-4-methyl-8-(4-nitro-2-trifluoromethylphenyl)-10b-methyl-1,2,3,4,4a,5,6,10b-octahydrobenzo[f]-quinolin-3-one], the inhibition at 0.3 µM in assay [1] (pH 5.5, read-out: percent inhibition of Type II AR) is 34%; in assay [2] (pH 7.5, read-out: percent inhibition of Type I AR), 77%.

In the case of `CN1C(=O)CC[C@]2(C)c3ccc(-c4ccc(C(F)(F)F)cc4[N+](=O)[O-])cc3CC[C@@H]12` [Example 134, (+)-(4aR)-(10bR)-4-methyl-8-(2-nitro-4-trifluoromethylphenyl)-10b-methyl-1,2,3,4,4a,5,6,10b-octahydrobenzo[f]-quinolin-3-one], the inhibition at 0.3 µM was found to be 46% in assay [1] (setting [3]) and 97% in assay [2] (setting [4]).

Turning to `CN1C(=O)CC[C@]2(C)c3ccc(-c4c(F)c(F)c(Cl)c(F)c4F)cc3CC[C@@H]12` [Example 135, (+)-(4aR)-(10bR)-4-methyl-8-(4-chloro-2,3,5,6-tetrafluorophenyl)-10b-methyl-1,2,3,4,4a,5,6,10b-octahydrobenzo[f]-quinolin-3-one], the inhibition at 0.3 µM in assay [1] (setting [3]) amounted to 31%; in assay [2] (setting [4]) it was 92%.

As to `CN1C(=O)CC[C@]2(C)c3ccc(SCc4ccccc4)cc3CC[C@@H]12` [Example 136, (4aR)-(10bR)-8-benzylthio-4,10b-dimethyl-1,2,3,4,4a,5,6, 10b-octahydrobenzo[f]quinolin-3-one], the values for the inhibition at 0.3 µM in assay [1] (setting [3]) and in assay [2] (setting [4]) were 32% and 100%, respectively.

As to `CN1C(=O)CC[C@]2(C)c3ccc(CSc4ccccc4)cc3CC[C@@H]12` [Example 137, (4aR)-(10bR)-8-phenylthiomethyl-4,10b-dimethyl-1,2,3,4,4a,5,6,10b-octahydrobenzo[f]quinolin-3-one], the inhibition at 0.3 µM in assay [1] (setting [3]) was determined as 37%; in assay [2] (setting [4]), 90%.

`CN1C(=O)CC[C@]2(C)c3ccc(CSc4nc5ccccc5s4)cc3CC[C@@H]12` [Example 138, (4aR)-(10bR)-8-(2-benzothiazole)thiomethyl-4,10b-dimethyl-1,2,3,4,4a,5,6,10b-octahydrobenzo[f]quinolin-3-one]: the values for the inhibition at 0.3 µM in assay [1] (setting [3]) and in assay [2] (setting [4]) were 26% and 88%, respectively.

As to `CN1C(=O)CC[C@]2(C)c3ccc(C(c4ccccc4)c4ccccc4)cc3CC[C@@H]12` [Example 139, (4aR)-(10bR)-8-diphenylmethyl-4,10b-dimethyl-1,2,3,4,-4a,5,6,10b-octahydrobenzo[f]quinolin-3-one], the inhibition at 0.3 µM in assay [1] (setting [3]) was found to be 59%; in assay [2] (setting [4]), 30%.

For the molecule `CN1C(=O)CC[C@]2(C)c3ccc(C(=O)Nc4ccccc4)cc3CC[C@@H]12` [Example 143, (+)-(4aR)-(10bR)-4-methyl-8-(phenylcarboxamido)-10b-methyl-1,2,3,4,4a,5,6,10b-octahydrobenzo[f]quinolin-3-one], the inhibition at 0.3 µM was 18% in assay [1] (setting [3]) and 63% in assay [2] (setting [4]).

For the molecule `CN1C(=O)CC[C@]2(C)c3ccc(C(=O)OCc4ccccc4)cc3CC[C@@H]12` [Example 144, (+)-(4aR)-(10bR)-4-methyl-8-benzyloxycarbonyl-10b-methyl-1,2,3,4,4a,5,6,10b-octahydrobenzo[f]quinolin-3-one], the inhibition at 0.3 µM came out at 40% in assay [1] (setting [3]) and 90% in assay [2] (setting [4]).
